Reference: US7247712B2, “Complex of hepatitis B virus-specific antigenic peptides associated with heat shock proteins and the application thereof” (priority 2000, dated 2007)
“Also recorded” adds a separate entry of the source.

What was measured:
[1] = test system: BALB/cJ mice (H-2d); test: Immunization in mice followed by cytotoxicity (CTL) analysis, standard 4-h 51Cr release assay; assay type: in vivo
Experimental: FIG. 1. Specific CTL response of BALB/cJ(H-2^d) mice after immunized with 7-mer peptied and gp96-7 mer peptide complex seven days. The lysis percentage of effector cells to specific target cells was measurated in a standard 4-h ^51Cr release assay. The lysis percent rate of the figure is the mean percentage of 10 mice.
BALB/cJ mice (H-2^d) 12-16 weeks old were used in this studies.
Sample was solubilized in 100 μl PBS and was injected subcutaneously in the neck back area of each mouse.
Therefore, we adopted the immunological manner of subcutaneous injection. The 7-mer peptide was dissolved in buffer (90% PBS, 10% DMSO/0.1% TFA) and gp96-7 mer peptide complex was dissolved in PBS buffer and then shaked severely for 1 minute before injection. For each mouse, the immunization dosage of 7-mer peptide was 0.2 nmol, 2 nmol and 20 nmol, respectively, the mice were immunized with peptide and Freund's after emulsion. The immunization dosage of gp96-7 mer peptide complex was 0.01 nmol, 0.05 nmol, 0.10 nmol and 0.50 nmol, respectively, the mice were immunized with subcutaneous injection in neck back area, and the second enhanced immunization was performed after one week from the first immunization, then cytotoxicity analysis was performed after 7 days. Each treatment group consisted of 10 mice. […]

[2] = biological target: T1, gp96 protein purified from human liver tissues (human, UniProt P14625 22-803); test: non-covalently bound peptides eluted with TFA from gp96 purified from HBV-infected liver cancer tissues, HPLC peak, MALDI-TOF, microsequencing
T1 construct: Native protein from tissue, over 95% purity; also called purified gp96 protein
T1 sequence (P14625 22-803 limits assumed): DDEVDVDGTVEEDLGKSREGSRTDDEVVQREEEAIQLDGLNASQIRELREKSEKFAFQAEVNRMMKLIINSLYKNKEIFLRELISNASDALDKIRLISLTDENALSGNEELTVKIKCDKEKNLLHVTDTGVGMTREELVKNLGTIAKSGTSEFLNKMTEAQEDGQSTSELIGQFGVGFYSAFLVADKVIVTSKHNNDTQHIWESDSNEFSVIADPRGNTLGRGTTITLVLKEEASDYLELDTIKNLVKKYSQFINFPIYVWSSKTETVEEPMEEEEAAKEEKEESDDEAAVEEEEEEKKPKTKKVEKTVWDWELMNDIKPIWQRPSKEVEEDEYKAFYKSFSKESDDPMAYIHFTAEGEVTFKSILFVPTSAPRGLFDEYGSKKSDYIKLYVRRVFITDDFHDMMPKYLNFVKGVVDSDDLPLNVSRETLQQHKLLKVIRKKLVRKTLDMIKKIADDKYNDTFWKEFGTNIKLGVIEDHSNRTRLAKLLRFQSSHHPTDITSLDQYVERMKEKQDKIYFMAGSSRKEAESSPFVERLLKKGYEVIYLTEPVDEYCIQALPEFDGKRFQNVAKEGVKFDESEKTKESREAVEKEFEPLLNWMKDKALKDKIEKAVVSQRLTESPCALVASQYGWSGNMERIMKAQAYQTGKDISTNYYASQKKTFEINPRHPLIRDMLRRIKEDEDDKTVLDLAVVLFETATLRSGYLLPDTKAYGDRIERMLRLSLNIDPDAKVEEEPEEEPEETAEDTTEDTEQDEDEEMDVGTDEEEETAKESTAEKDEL

Molecule: YVNTNMG [7-mer peptide, 7-mer peptide “YVNTNMG or YVNVNMG”, amino acid residues 88-94 of the core protein of HBV]
- effect of adjuvant on immunogenicity ([1]; Freund's incomplete adjuvant, Freund's complete adjuvant, chromium alum): can improve the immunological activity of it significantly
- specific cytotoxic T lymphocyte (CTL) response in mice after immunization ([1]; subcutaneous immunization, 51Cr release assay): can elicit the specific CTL response in mice; also recorded: can elicit the specific cytotoxic T lymphocytes in mice

B1: 7-mer peptide YVNTNMG (HBV core protein 88-94) (peptide)
peptide: YVNTNMG
notes: Eluted from tissue gp96 and also synthesized
- binding result [2]: binds

B2: 7-mer peptide YVNVNMG (HBV core protein 88-94) (peptide)
peptide: YVNVNMG
notes: Printed as the alternative to YVNTNMG
- binding result [2]: binds
